Read-outs that look alike come from different tables or passages of the source. Where no end group is shown, it is not given here.
What was measured:
THP-1 cells [1] = assay: Total RNA levels (ng/μL) as a marker for cell viability; type: cell-based, human
Description: (§1) Control and treated cells are transferred to separate sterile 1.5-mL tubes and centrifuged for 5 minutes at 300 g. The cell pellets are resuspended in appropriate buffer to lyse the cells. RNAase-free 70% ethanol is then added followed by mixing by pipetting. The lysates are transferred to an RNeasy™ Mini spin column and centrifuged 30 seconds at 13000 RPM. After several washes with appropriate buffers and centrifugation steps, the eluates are collected in sterile 1.5-mL tubes on ice, and the RNA quantity in each tube is then quantified with a spectrophotometer. For DNase treatment, 2 μg of RNA is diluted in 15 μL of RNase-free water. 1.75 μL of 10× DNase buffer and 0.75 μL of DNase is then added, followed by incubation at 37° C. for 15 minutes. For reverse transcriptase treatment, 0.88 μL of EDTA ([…]) is added, followed by incubation at 75° C. for 5 minutes. In a PCR tube, 0.5 μg of DNase-treated RNA is mixed with 4 μL of iScript™ Reverse transcription Supermix (5×) and […] of nuclease-free water. The mix is incubated in a PCR machine with the following program: 5 min at 25° C., 30 min at 42° C. and 5 min at 85° C. Newly synthesized cDNA is transferred in sterile 1.5-mL tubes and diluted in 2 μL of nuclease-free water. 18 μL per well of a qPCR machine (CFX-96™) mix is then added in a PCR plate for analysis.
Briefly, THP-1 cells were plated at 30 000 cells/well one day before transduction. HOXB4-WT recombinant protein (0.3, 0.9, or 1.5 μM; Example 14.1) was co-incubated with different concentrations of His-CM18-PTD4 ([…], 0.8 or 1 μM) and then exposed to THP-1 cells for 2.5 hours in the presence of serum. The cells were subjected to real time-PCR analysis as described in Example 14.2 to measure the mRNA levels of a target gene as a marker for HOXB4 activity, which was then normalized to the target gene mRNA levels detected in the negative control cells (no treatment), to obtain a “Fold over control” value. Total RNA levels (ng/μL) were also measured as a marker for cell viability.

[2] = Cell toxicity / % cell viability by flow cytometry (cells in total events v. untreated); type: cell-based, Human; conditions: human, HeLa cells, HeLa; for viability at 1 min, 20 µM / viability at 10 s, 50 µM / viability at 1 min, 10 µM / viability at 2 min, 10 µM / viability at 5 min, 10 µM: Protocol B; for viability at 1 min, 20 µM: 1 minute; for viability at 10 s, 50 µM: FIG. 29A, shuttle 50 μM, 10 seconds; for viability at 1 min, 10 µM / viability at 2 min, 10 µM / viability at 5 min, 10 µM: shuttle 10 μM; for viability at 1 min, 10 µM: incubation 1 min; for viability at 2 min, 10 µM: incubation 2 min; for viability at 5 min, 10 µM: incubation 5 min
Description: (§2) The fluorescence of GFP was quantified using flow cytometry (Accuri C6, Becton, Dickinson and Company (BD)). Untreated cells were used to establish a baseline in order to quantify the increased fluorescence due to the internalization of the fluorescent protein in treated cells. The percentage of cells with a fluorescence signal above the maximum fluorescence of untreated cells, “mean %” or “Pos cells (%)”, is used to identify positive fluorescent cells. “Relative fluorescence intensity (FL1-A)” corresponds to the mean of all fluorescence intensities from each cell with a fluorescent signal after fluorescent protein delivery with the shuttle agent. Also, the events scanned by flow cytometry corresponding to cells (size and granularity) were analyzed. The cellular toxicity (% cell viability) was monitored comparing the percentage of cells in the total events scanned of treated cells comparatively to untreated cells.

HeLa cells [3] = assay: GFP-NLS transduction efficiency, flow cytometry (Pos cells %, relative fluorescence intensity FL1-A); type: cell-based, Human; conditions: Protocol B, 1 minute; for Mean % cells with GFP signal (±St. Dev.; n = 3), FIG. 29I: shuttle 20 μM, GFP-NLS 5 μM
HeLa cells [4] = assay: Cell toxicity / % cell viability by flow cytometry (cells in total events v. untreated); type: cell-based, Human; conditions: for effect of the variation of the shuttle on cell viability (in words): GFP-NLS 5 μM with 20 μM shuttle variant
Description: as §2

THP-1 cells [5] = assay: HOXB4-WT transduction, real-time PCR of target gene mRNA (Fold over control); type: cell-based, human
Description: as §1
Briefly, THP-1 cells were plated at 30 000 cells/well one day before transduction. […] The cells were subjected to real time-PCR analysis as described in Example 14.2 to measure the mRNA levels of a target gene as a marker for HOXB4 activity, which was then normalized to the target gene mRNA levels detected in the negative control cells (no treatment), to obtain a “Fold over control” value. Total RNA levels (ng/μL) were also measured as a marker for cell viability.
Briefly, THP-1 cells were plated at 30 000 cells/well one day before the first time course experiment. […] The cells were subjected to real time-PCR analysis as described in Example 14.2 to measure mRNA levels of a target gene as a marker for HOXB4 activity, which was then normalized to the target gene mRNA levels detected in the negative control cells (no treatment), to obtain a “Fold over control” value. Total RNA levels (ng/μL) were also measured as a marker for cell viability.
Briefly, THP-1 cells were plated at 30 000 cells/well one day before the first time course experiment. […] The cells were subjected to real time-PCR analysis as described in Example 14.2 to measure mRNA levels of a target gene as a marker for HOXB4 activity, which was then normalized to target gene mRNA levels detected in the negative control cells (no treatment), to obtain a “Fold over control” value. Total RNA levels (ng/μL) were also measured as a marker for cell viability. […]

[6] = Cell toxicity / % cell viability by flow cytometry (cells in total events v. untreated); type: cell-based, human; conditions: human, THP-1 cells, THP-1, Protocol C, shuttle 1 μM, GFP-NLS 5 μM, read-out: Cell viability (%) (±St. Dev.; n = 3)
Description: as §2

[7] = Cell viability (%) (±St. Dev.; n = 3), FIG. 29I, shuttle 20 μM, GFP-NLS 5 μM, read-out: Cell viability (%) (±St. Dev.; n = 3), FIG. 29I
[8] = HeLa, Protocol B, shuttle 50 μM, GFP-NLS 5 μM, 10 seconds
[9] = Cell viability (%) (±St. Dev.; n = 3), GFP-NLS 5 μM, read-out: Cell viability (%) (±St. Dev.; n = 3)
[10] = GFP-NLS 5 μM, read-out: Cell viability (%) (±St. Dev.; n = 3), FIG. 29G
[11] = GFP-NLS 5 μM, read-out: Cell viability (%) (±St. Dev.; n = 3)
[12] = GFP-NLS 5 μM, read-out: Cell viability (%) (±St. Dev.; n = 3), FIG. 29B

## HHHHHHKWKLFKKIGAVLKVLTTGYARAAARQARA [His-CM18-PTD4 alone]
THP-1 cells [1]; Table 14.1, shuttle 1 μM, HOXB4-WT 0 μM, 2.5 hours with serum
  Total RNA in ng/μL (mean ± St. Dev): 252 ± 10.7 ng/µL
THP-1 cells [1]; Table 14.2, shuttle 0.8 μM, HOXB4-WT 0 μM, exposure time 2.5 h, serum
  Total RNA in ng/μL (mean ± St. Dev): 184 ± 6.0 ng/µL
THP-1 cells [1]; Table 14.3, shuttle 0 μM, HOXB4-WT 0.3 μM, exposure time 2.5 h, serum
  Total RNA in ng/μL (mean ± St. Dev): 260 ± 7.1 ng/µL
THP-1 cells [1]; Table 14.4, shuttle 0 μM, HOXB4-WT 1.5 μM, exposure time 2.5 h, serum
  Total RNA in ng/μL (mean ± St. Dev): 303.9 ± 7.6 ng/µL

## HHHHHHKWKLFKKIGAVLKVLTTGYARAAARQARACCCCCC (cysteines drawn unpaired) [His-CM18-PTD4-6Cys]
[2]; [7]
  viability at 1 min, 20 µM: 62 ± 5.76%
HeLa cells [3]
  Mean % cells with GFP signal (±St. Dev.; n = 3), FIG. 29I: 41.3 ± 4.28%

## HHHHHHKWKLFKKIGAVLKVLTTGYGRKKRRQRRR [His-CM18-TAT]
HeLa cells [4]; [8]
  Cell viability (%) (±St. Dev.; n = 3), FIG. 29E: 35.2 ± 5.7%
[2]; Cell viability (%) (±St. Dev.; n = 3), FIG. 21B, GFP-NLS 5 μM, shuttle 1 μM, 1 hour, read-out: Cell viability (%) (±St. Dev.; n = 3), FIG. 21B
  viability at 1 h, 1 µM: 95 ± 3.55%
[2]; Cell viability (%) (±St. Dev.; n = 3), FIG. 21B, GFP-NLS 5 μM, shuttle 3 μM, 1 hour, read-out: Cell viability (%) (±St. Dev.; n = 3), FIG. 21B
  viability at 1 h, 3 µM: 91 ± 5.18%
[2]; Cell viability (%) (±St. Dev.; n = 3), FIG. 21B, GFP-NLS 5 μM, shuttle 5 μM, 1 hour, read-out: Cell viability (%) (±St. Dev.; n = 3), FIG. 21B
  viability at 1 h, 5 µM: 86 ± 4.59%
[2]; [9]
  viability at 10 s, 50 µM: 35.2 ± 5.7%

## HOXB4-WT alone
THP-1 cells [5]; Table 14.1, shuttle 0 μM, HOXB4-WT 1.5 μM, 2.5 hours with serum
  Fold over control (mean ± St. Dev): 4.3 ± 0.1
THP-1 cells [5]; Table 14.2, shuttle 0 μM, HOXB4-WT 1.5 μM, exposure time 2.5 h, serum
  Fold over control (mean ± St. Dev): 3.4 ± 0.3
THP-1 cells [5]; Table 14.3, shuttle 0.8 μM, HOXB4-WT 0 μM, exposure time 2.5 h, serum
  Fold over control (mean ± St. Dev): 1 ± 0.14
THP-1 cells [5]; Table 14.4, shuttle 0.8 μM, HOXB4-WT 0 μM, exposure time 2.5 h, serum
  Fold over control (mean ± St. Dev): 1 ± 0.11

## KWKLFKKIGAVLKVLTTGGGSGGGSGGGSGYARAAARQARA [CM18-L3-PTD4]
HeLa cells [4]; HeLa, 1 minute, Protocol B
  effect of the variation of the shuttle on cell viability (in words): increased cell viability
HeLa cells [3]; GFP-NLS 5 μM with 20 μM shuttle variant
  effect of the variation of the shuttle on transduction efficiency (in words): did not result in a dramatic loss of transduction efficiency
HeLa cells [3]
  Mean % cells with GFP signal (±St. Dev.; n = 3), FIG. 29I: 39.0 ± 2.7%

## KWKLFKKIGAVLKVLTTGGGSGGGSYARAAARQARA [CM18-L2-PTD4]
HeLa cells [4]; HeLa, 1 minute, Protocol B
  effect of the variation of the shuttle on cell viability (in words): increased cell viability
[2]; [7]
  viability at 1 min, 20 µM: 64 ± 1.3%

## KWKLFKKIGAVLKVLTTGGGSYARAAARQARA [CM18-L1-PTD4]
HeLa cells [4]; HeLa, 1 minute, Protocol B
  effect of the variation of the shuttle on cell viability (in words): increased cell viability
[2]; [7]
  viability at 1 min, 20 µM: 50.1 ± 3.8%

## KWKLFKKIGAVLKVLTTGYARAAARQARA [CM18-PTD4]
HeLa cells [4]; HeLa, Protocol B, shuttle 20 μM, GFP-NLS 5 μM, 1 minute
  Cell viability (%) (±St. Dev.; n = 3), FIG. 29I: 33.9 ± 3.7%
[2]; cell viability, GFP-NLS 5 μM with 20 μM shuttle, Table 10.3e, read-out: cell viability
  viability at 1 min, 20 µM: 33.9%

## MHHHHHHKWKLFKKIGAVLKVLTTGYARAAARQARAC [Met-His-CM18-PTD4-Cys]
[2]; [7]
  viability at 1 min, 20 µM: 54.9 ± 3.45%
HeLa cells [3]
  Mean % cells with GFP signal (±St. Dev.; n = 3), FIG. 29I: 45.6 ± 3.88%

## YARAAARQARAWEAKLAKALAKALAKHLAKALAKALKACEA [PTD4-KALA]
HeLa cells [4]
  Cell viability (%) (±St. Dev.; n = 3), FIG. 29F: 91.4 ± 3.67%
[2]; [10]
  viability at 1 min, 10 µM: 96.2 ± 3%
  viability at 2 min, 10 µM: 75.3 ± 3.8%
  viability at 5 min, 10 µM: 82.4 ± 4.7%
[2]; [11]
  viability at 10 s, 50 µM: 91.4 ± 3.67%

## YGRKKRRQRRRCKWKLFKKIGAVLKVLTTG [TAT-CM18]
HeLa cells [4]; [8]
  Cell viability (%) (±St. Dev.; n = 3), FIG. 29F: 23.5 ± 1.1%
[2]; [9]
  viability at 10 s, 50 µM: 23.5 ± 1.1%

## YGRKKRRQRRRCWEAKLAKALAKALAKHLAKALAKALKACEA (cysteines drawn unpaired) [TAT-KALA]
HeLa cells [4]; [8]
  Cell viability (%) (±St. Dev.; n = 3), FIG. 29F: 95.6 ± 4.3%
[2]; [12]
  viability at 1 min, 10 µM: 93.5 ± 2.7%
  viability at 2 min, 10 µM: 92.1 ± 3.1%
  viability at 5 min, 10 µM: 86 ± 4.4%
[2]; [11]
  viability at 10 s, 50 µM: 95.6 ± 4.3%
[6]; incubation time 15 sec
  viability at 15 s, 1 µM: 84.6 ± 2.7%
[6]; incubation time 30 sec
  viability at 0.5 min, 1 µM: 70.3 ± 3.2%
[6]; incubation time 60 sec
  viability at 1 min, 1 µM: 82.7 ± 1.4%
[6]; incubation time 120 sec
  viability at 2 min, 1 µM: 46.3 ± 4.9%

From patent publication US12060387B2, “Polypeptide-based shuttle agents for improving the transduction efficiency of polypeptide cargos to the cytosol of target eukaryotic cells, uses thereof, methods and kits relating to same” (priority 2015, dated 2024)
